Results published in patent US7273715B2 (priority 2003, dated 2007).
pIC50: −log10 of the molar value. Read-outs that look alike come from different tables or passages of the source. Peptide text beside a SMILES is read from it. * marks the point of attachment. Cbz = O=C(OCc1ccccc1)*

Assays:
GS-9005 hydrolase A [1] = molecular target: T1, GS-9005 hydrolase A (Homo sapiens, UniProt P42785); type: biochemical
T1 construct: Varying amounts of purified GS-9005 hydrolase A and control enzymes; from tissue; host or cells: human peripheral blood mononuclear cells (PBMC), purified by Q15 flow-through, SP-Sepharose, Butyl Sepharose HIC and lentil lectin chromatography
T1 sequence (P42785 46-496): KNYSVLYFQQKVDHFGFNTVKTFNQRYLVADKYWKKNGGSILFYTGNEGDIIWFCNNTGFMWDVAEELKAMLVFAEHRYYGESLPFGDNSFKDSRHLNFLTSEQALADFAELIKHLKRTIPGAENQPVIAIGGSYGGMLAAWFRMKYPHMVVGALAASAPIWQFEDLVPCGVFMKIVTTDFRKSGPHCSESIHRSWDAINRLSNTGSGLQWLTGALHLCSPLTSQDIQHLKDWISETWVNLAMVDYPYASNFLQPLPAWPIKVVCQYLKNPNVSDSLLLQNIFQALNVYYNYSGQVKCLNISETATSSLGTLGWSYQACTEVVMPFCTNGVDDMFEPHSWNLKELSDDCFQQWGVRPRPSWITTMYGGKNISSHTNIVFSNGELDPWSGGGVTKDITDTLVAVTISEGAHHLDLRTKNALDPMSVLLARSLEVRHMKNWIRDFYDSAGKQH

[2] = molecular target: Human Prolylcarboxypeptidase (Homo sapiens, UniProt P42785); conditions: read-out: Inhibition profile, ProlylcarboxyPeptidase; cited from earlier work
GS-9005 hydrolase A [3] = molecular target: T1, GS-9005 hydrolase A; type: biochemical; remark: listed apart in the source
[4] = pH 6.5, read-out: IC50 (inhibition profile, 9005 Hydrolase A)
[5] = read-out: concentration at which GS-9005 hydrolase A is inhibited by 50%

O=C[C@@H]1CCCN1C(=O)[C@@H]1CCCN1C(=O)OCc1ccccc1 [Cbz-pro-pro-COH, Carboxybenzoyl-Pro-Pro-COH] (Cbz-Pro-Pro-aldehyde)
inhibition of GS-9005 hydrolase A (in words) (GS-9005 hydrolase A [1]): inhibited | pIC50 (GS-9005 hydrolase A [1]; [4]): 6.00 | pIC50 (GS-9005 hydrolase A [1]; [5]): ~6.00 | pIC50 [2]: 6.00

CCOC(=O)[C@H](C)OP(=O)(COc1ccc(C[C@H](NC(=O)O[C@H]2CO[C@H]3OCCC32)[C@H](O)CN(CC(C)C)S(=O)(=O)c2ccc(OC)cc2)cc1)Oc1ccccc1 (stereo partly shown) [Compound A]
specific activity of GS-9005 hydrolase A against the compound (comparison in words) (GS-9005 hydrolase A [3]): greater than its specific activity against Compound L

CCOC(=O)[C@H](C)NP(=O)(COc1ccc(C[C@@H]2[C@H](O)[C@@H](O)[C@@H](Cc3ccc(OC)cc3)N(Cc3ccc4[nH]ncc4c3)C(=O)N2Cc2ccc3[nH]ncc3c2)cc1)N[C@@H](C)C(=O)OCC [Compound BB]
specific activity of GS-9005 hydrolase A against the compound (comparison in words) (GS-9005 hydrolase A [3]): approximately equivalent specific activity

CCOC(=O)[C@H](C)NP(=O)(COc1ccc(C[C@@H]2[C@H](O)[C@@H](O)[C@@H](Cc3ccc(OC)cc3)N(Cc3ccc4[nH]ncc4c3)C(=O)N2Cc2ccc3[nH]ncc3c2)cc1)Oc1ccccc1 (stereo partly shown) [Compound CC]
specific activity of GS-9005 hydrolase A against the compound (comparison in words) (GS-9005 hydrolase A [3]): approximately equivalent specific activity

CCOC(=O)[C@H](C)OP(=O)(COc1ccc(C[C@@H]2[C@H](O)[C@@H](O)[C@@H](Cc3ccc(OC)cc3)N(Cc3ccc4[nH]ncc4c3)C(=O)N2Cc2ccc3[nH]ncc3c2)cc1)Oc1c(C)cccc1C (stereo partly shown) [Compound EE]
specific activity of GS-9005 hydrolase A against the compound (comparison in words) (GS-9005 hydrolase A [3]): greater than its specific activity against Compound W

CCOC(=O)[C@H](C)OP(=O)(CCNCc1ccc(Cn2c(COC(N)=O)nc(C(C)C)c2Sc2cc(Cl)cc(Cl)c2)cc1)Oc1ccccc1 (stereo partly shown) [Compound GG]
specific activity of GS-9005 hydrolase A against the compound (comparison in words) (GS-9005 hydrolase A [3]): greater than its specific activity against Compound DD

CCOC(=O)COP(=O)(COc1ccc(Cn2c(COC(N)=O)nc(C(C)C)c2Sc2cc(Cl)cc(Cl)c2)cc1)Oc1ccccc1 (stereo not shown) [Compound HH]
specific activity of GS-9005 hydrolase A against the compound (comparison in words) (GS-9005 hydrolase A [3]): greater than its specific activity against Compound I

CCSc1ccc(CN2CCCN(Cc3cccnc3)CC2)cc1 [Compound JJ]
specific activity of GS-9005 hydrolase A against the compound (comparison in words) (GS-9005 hydrolase A [3]): greater than its specific activity against Compound AA

CCOC(=O)[C@H](C)NP(=O)(COc1ccc(Cn2c(COC(N)=O)nc(C(C)C)c2Sc2cc(Cl)cc(Cl)c2)cc1)Oc1ccccc1 (stereo partly shown) [Compound KK]
specific activity of GS-9005 hydrolase A against the compound (comparison in words) (GS-9005 hydrolase A [3]): greater than its specific activity against Compound FF

C=C(OC(C)C)[C@H](C)N[P@](=O)(CO[C@H](C)Cn1cnc2c(C)ncnc21)Oc1ccccc1 [Compound K]
specific activity of GS-9005 hydrolase A against the compound (comparison in words) (GS-9005 hydrolase A [3]): approximately equivalent specific activity

COC(=O)[C@H](C)NP(=O)(COc1ccc(Cn2c(COC(N)=O)nc(C(C)C)c2Sc2cc(Cl)cc(Cl)c2)cc1)Oc1ccccc1 (stereo partly shown) [Compound LL]
specific activity of GS-9005 hydrolase A against the compound (comparison in words) (GS-9005 hydrolase A [3]): approximately equivalent specific activity

COC(=O)[C@H](C)N[P@](=O)(CO[C@H](C)Cn1cnc2c(N)ncnc21)Oc1ccccc1 [Compound U]
specific activity of GS-9005 hydrolase A against the compound (comparison in words) (GS-9005 hydrolase A [3]): approximately equivalent specific activity

C=C(OC(C)C)C(C)OP(=O)(CCNCc1ccc(C[C@H](NC(=O)O[C@H]2CO[C@H]3OCC[C@H]32)[C@H](O)CN(CC(C)C)S(=O)(=O)c2ccc(OC)cc2)cc1)Oc1ccccc1 (stereo partly shown) [Compound X]
specific activity of GS-9005 hydrolase A against the compound (comparison in words) (GS-9005 hydrolase A [3]): greater than its specific activity against Compound V

CCOC(=O)[C@H](C)OP(=O)(CCN1CCN(C(=O)c2c3c(c(O)c4ncccc24)C(=O)N(Cc2ccc(F)cc2)C3)CC1)Oc1ccccc1 (stereo partly shown) [Compound Y]
specific activity of GS-9005 hydrolase A against the compound (comparison in words) (GS-9005 hydrolase A [3]): greater than its specific activity against Compound B

C=C(OCC)[C@H](C)OP(=O)(CCNC(=O)c1c2c(c(O)c3ncccc13)C(=O)N(Cc1ccc(F)cc1)C2)Oc1ccccc1 (stereo partly shown) [Compound Z]
specific activity of GS-9005 hydrolase A against the compound (comparison in words) (GS-9005 hydrolase A [3]): approximately equivalent specific activity

O=c1oc(Cl)c(Cl)c2ccccc12 [DCI, 3,4 dichloroisocoumarin]
inhibition of GS-9005 hydrolase A (in words) (GS-9005 hydrolase A [1]): inhibited

O=S(=O)(F)Cc1ccccc1 [PMSF]
pIC50 (GS-9005 hydrolase A [1]; [4]): 3.70 | pIC50 (GS-9005 hydrolase A [1]; [5]): ~3.70 | pIC50 [2]: 3.52 to 4.00
